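Protocol summary: plate cells (96-well), add compound at 5 concentrations, incubate 48 h, interpolate endpoints linearly. GI50 = concentration required for 50% inhibition of growth. TGI denotes the concentration required for complete inhibition of growth.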
Legend:
Assay in all cases: NCI anticancer screen, dose series, 48 h
HL-60(TB) leukemia = system: HL-60(TB) leukemia
UO-31 renal = system: UO-31 renal
MCF7 breast = system: MCF7 breast
CCRF-CEM leukemia = system: CCRF-CEM leukemia
UACC-257 melanoma = system: UACC-257 melanoma
HOP-92 NSCLC = system: HOP-92 NSCLC
NCI-H522 lung = system: NCI-H522 lung
CAKI-1 renal = system: CAKI-1 renal
EKVX NSCLC = system: EKVX NSCLC
DU-145 prostate = system: DU-145 prostate

| Compound | GI50 (HL-60(TB) leukemia) | TGI (HL-60(TB) leukemia) | GI50 (UO-31 renal) | TGI (UO-31 renal) | GI50 (MCF7 breast) | TGI (MCF7 breast) | GI50 (CCRF-CEM leukemia) | TGI (CCRF-CEM leukemia) | GI50 (UACC-257 melanoma) | TGI (UACC-257 melanoma) | GI50 (HOP-92 NSCLC) | TGI (HOP-92 NSCLC) | GI50 (NCI-H522 lung) | TGI (NCI-H522 lung) | GI50 (CAKI-1 renal) | TGI (CAKI-1 renal) | GI50 (EKVX NSCLC) | TGI (EKVX NSCLC) | GI50 (DU-145 prostate) | TGI (DU-145 prostate) |
| --- | --- | --- | --- | --- | --- | --- | --- | --- | --- | --- | --- | --- | --- | --- | --- | --- | --- | --- | --- | --- |
| Nc1nc(-c2cccc(Cl)c2)c(-c2ccc3ncccc3n2)s1 | > 25 µM | > 25 µM | 10.1 µM | > 25 µM | > 25 µM | > 25 µM | > 25 µM | > 25 µM | > 25 µM | > 25 µM | > 24 µM | > 25 µM | > 25 µM | > 25 µM | > 25 µM | > 25 µM | > 25 µM | > 25 µM | > 25 µM | > 25 µM |
| COc1ccc(C2SCC(=O)N2NC(=O)Nc2c(C)nc3ccccn23)cc1 (centres undefined) | > 100 µM | > 100 µM | 32.7 µM | > 100 µM | 75.7 µM | > 100 µM | > 100 µM | > 100 µM | > 100 µM | > 100 µM | 16.6 µM | 37.5 µM | 32.8 µM | 95.4 µM | > 100 µM | > 100 µM | 63 µM | > 100 µM | 44.9 µM | > 100 µM |
| CCc1oc2ccccc2c1C(=O)c1cc(I)c(O)c(I)c1 | 1.62 µM | 8.74 µM | 1.82 µM | 10.5 µM | 4.02 µM | 14.7 µM | 2.05 µM | 15.4 µM | 6.13 µM | 21.1 µM | 1.04 µM | 7.73 µM | 1.84 µM | 12.9 µM | 2.3 µM | 10.8 µM | 3.59 µM | 15.4 µM | 2.37 µM | 7.4 µM |
| CCC(=O)c1c(C(F)(F)F)n([O-])c2ccc(C)cc2[n+]1=O | 4.82 µM | > 50 µM | 1.48 µM | > 50 µM | 6.29 µM | 40.5 µM | 18.2 µM | > 50 µM | 11.3 µM | > 50 µM | 8.69 µM | > 50 µM | 1.62 µM | 11.2 µM | 5.78 µM | 16.2 µM | 1.52 µM | 6.09 µM | 5.99 µM | 16.6 µM |
| CCCCN1CSC(=S)N(Cc2ccccc2)C1 |  | 19.4 µM |  | > 100 µM |  | > 100 µM |  | 32.9 µM |  | 60.2 µM |  | > 100 µM |  | > 71.8 µM |  | > 100 µM |  | 78.7 µM |  | > 100 µM |
| Cn1cnc([N+](=O)[O-])c1[Se]c1nc(N)nc2c1ncn2C1OC(CO)C(O)C1O (centres undefined) |  | > 100 µM |  | > 100 µM |  | > 100 µM |  | > 100 µM |  | > 100 µM |  | > 100 µM |  | > 100 µM |  | > 100 µM |  | > 100 µM |  | > 100 µM |
| O=C1/C(=C/c2ccc(O)cc2)CSc2ccc(Cl)cc21 | 2.27 µM | > 100 µM | 12.4 µM | 29.1 µM | 0.651 µM | 11 µM | 0.58 µM | > 100 µM | 19.1 µM | 38.9 µM | 21.7 µM | > 100 µM | 3.25 µM | 10.7 µM | 21.2 µM | 52 µM | 16.4 µM | 32.4 µM | 12.4 µM | 27.2 µM |
| Cc1nc(-c2ccccc2)c(-c2ccccc2)s1 |  | 28.5 µM |  | 54.1 µM |  | 62.3 µM |  | 40.3 µM |  | 79.9 µM |  | 83.6 µM |  | 37.7 µM |  | 62.3 µM |  | 69.4 µM |  | > 100 µM |
| COc1cc2c(c(OC)c1OC)-c1c(cc3c(c1OC)OCO3)C1OC2C(C)C1C (centres undefined) (tested in a mixture with another compound) |  | > 100 µM |  | > 100 µM |  | > 100 µM |  | > 100 µM |  | > 100 µM |  | > 100 µM |  | > 100 µM |  | > 100 µM |  | > 100 µM |  | > 100 µM |
| CSc1nc2cc(S(=O)(=O)N3CCCCC3)ccc2s1 |  | > 100 µM |  | > 100 µM |  | > 100 µM |  | > 100 µM |  | > 100 µM |  | > 100 µM |  | > 100 µM |  | > 100 µM |  | > 100 µM |  | > 100 µM |
| Cc1ccc(C(=O)Nc2ccc(CN3CCN(C)CC3)c(C(F)(F)F)c2)cc1C#Cc1cnc(N)c2ccccc12 | 0.491 µM | 2.41 µM | 0.241 µM | 0.886 µM | 0.799 µM | 1.61 µM | 0.622 µM | 3.04 µM | 0.736 µM | 1.73 µM | 0.506 µM | 2.08 µM | 0.465 µM | 1.36 µM | 0.328 µM | 1.05 µM | 0.514 µM | 1.28 µM | 0.167 µM | 0.861 µM |
| Fc1ccc(-c2nn3ncccc3c2-c2ccnc(Nc3ccc4c(c3)OCCO4)n2)cc1 | 5.01 µM | 13.8 µM | 0.581 µM | > 25 µM | 2.79 µM | > 25 µM | 6.22 µM | > 25 µM | 6.22 µM | 19.7 µM | 2.61 µM | 18.8 µM | 3.56 µM | 10.7 µM | 0.891 µM | > 17.2 µM | 2.16 µM | > 25 µM | 6.26 µM | > 25 µM |
| COc1cc2c3c(n(CCNCCCNCCn4c5c(c6cc(OC)c(OC)cc6c4=O)C(=O)c4ccccc4-5)c(=O)c2cc1OC)-c1ccccc1C3=O | < 0.0154 µM | 0.334 µM | > 65.1 µM | > 100 µM | 0.0878 µM | 2.9 µM | < 0.0174 µM | 1.63 µM | 73.3 µM | > 100 µM | 0.0656 µM | 0.556 µM | < 0.0423 µM | 6.66 µM | > 100 µM | > 100 µM | 5.89 µM | 47.2 µM | 0.197 µM | 30.8 µM |
| COc1cc2c3c(n(C)c(=O)c2cc1OC)-c1cc2c(cc1/C3=C\CNCCCN)OCO2 | 0.171 µM | 0.782 µM | 6.96 µM | > 100 µM | 1.04 µM | 16.5 µM | 0.0239 µM | 0.15 µM | 0.907 µM | 2.76 µM | 0.174 µM | 1.27 µM | 0.348 µM |  | 0.848 µM | 16 µM | 2.85 µM | 12.2 µM | 1.15 µM | 12.8 µM |
| Nc1ncn(C2CC(O)C(CO)O2)c(=O)n1 (centres undefined) |  | 103 µM |  | > 375 µM |  | > 375 µM |  | > 261 µM |  | 131 µM |  | > 375 µM |  | 218 µM |  | > 375 µM |  | > 293 µM |  | > 375 µM |
| CS(=O)(=O)c1cc(=O)c2ccccc2s1 |  | 6.45 µM |  | 29.4 µM |  | 8.18 µM |  | 3.93 µM |  | 7.92 µM |  | 3.71 µM |  | 3.32 µM |  | 4.49 µM |  | 21.4 µM |  | 33.3 µM |
| COC(=O)[C@H](Cc1c[nH]c2ccccc12)NC(=O)[C@@H](OC)[C@@H]1Cc2cc3cc(OC4CC(OC5CC(O)C(O)C(C)O5)C(O)C(C)O4)c(C)c(O)c3c(O)c2C(=O)[C@H]1OC1CC(OC2CC(OC3CC(C)(O)C(O)C(C)O3)C(O)C(C)O2)C(O)C(C)O1 (some centres undefined) | 0.0119 µM | 0.386 µM | 0.215 µM | 1.18 µM | 0.00391 µM | 2.55 µM | 0.0064 µM | > 6.28 µM | 0.00662 µM | 0.124 µM | 0.0039 µM | 0.0333 µM | 0.00509 µM | 0.0552 µM | 0.345 µM | > 16.5 µM | 0.0125 µM | 3 µM | 0.00713 µM | > 16.5 µM |
| c1cc2c(ncc3cscc32)s1 |  | > 100 µM |  | > 100 µM |  | > 100 µM |  | > 100 µM |  | > 100 µM |  | > 100 µM |  | > 100 µM |  | > 100 µM |  | > 100 µM |  | > 100 µM |

Source: PubChem BioAssay (NCI)
